Values of other authors as cited in US20120108678A1, “BRANCHED COPOLYMERS, COMPOSITIONS AND USES” (UNILEVER PLC, priority 2009, published 2012).

water solubility (water-insoluble monomer examples) [% w/w]	SMILES	Solubility in water w/w at 20° C.
–	C=CC(=O)OCCO [2-Hydroxyethyl acrylate]	soluble
0.02	C=Cc1ccccc1 [styrene]	–
–	C=C(C)C(=O)OCCO [2-Hydroxyethyl methacrylate]	3.00 w/w
–	C=C(C)C(=O)O [Methacrylic acid]	Soluble
–	C=CC(=O)OCC(C)O (centres unmarked) [2-Hydroxypropyl acrylate]	Soluble
